Literature values, collected in US20180371542A1, “OPIOID RECEPTOR BLOCKADE IN TREATING ALCOHOL USE DISORDERS” (MUSC Foundation for Research Development, priority 2017, published 2018).

Test system: DSM-IV alcohol dependent individuals
Details: all subjects irrespective of genotype; initial report (Schacht et al., 2017)

## O=C1CC[C@@]2(O)[C@H]3Cc4ccc(O)c5c4[C@@]2(CCN3CC2CC2)[C@H]1O5 [naltrexone]
  Main effect of naltrexone over placebo overall: significant main effect of naltrexone over placebo
